These results are taken from ChEMBL document CHEMBL5727392, “2,4-disubstituted pyrimidines as CDK inhibitors” (2019).

In this assay the target is Cyclin-dependent kinase 4 (Homo sapiens, UniProt P11802). In words: Caliper Mobility Shift Assay: CDK4: The test compound was dissolved in DMSO and diluted with a kinase buffer solution (20 mM HEPES-pH 7.5, 0.01% Triton X-100, 10 mM MgCl2, 2 mM DTT) and 5 μL of compound at 5-fold final concentration of reaction dissolved in 10% DMSO was added in a 384-well plate. The compound-free control well was 5 μL of 10% DMSO, and the no-activity control well was 5 μL of kinase buffer. 10 μL of a 2.5-fold diluted CDK4 enzyme solution (GST-CDK4(1-303 end)) was added and incubated at room temperature for 10 min, and then 10 μL of the 2.5-fold diluted substrate solution Peptide FAM-P8 was added. The reaction was stopped by adding 25 μL of stop solution after incubation at 28° C. for 3 h, and the conversion rate data was read on a Caliper EZ Reader II (Caliper Life Sciences) and the conversion rate was converted to inhibition rate data according to above method.

Molecules are shown by their SMILES.

Sequence of Cyclin-dependent kinase 4 (P11802 whole entry): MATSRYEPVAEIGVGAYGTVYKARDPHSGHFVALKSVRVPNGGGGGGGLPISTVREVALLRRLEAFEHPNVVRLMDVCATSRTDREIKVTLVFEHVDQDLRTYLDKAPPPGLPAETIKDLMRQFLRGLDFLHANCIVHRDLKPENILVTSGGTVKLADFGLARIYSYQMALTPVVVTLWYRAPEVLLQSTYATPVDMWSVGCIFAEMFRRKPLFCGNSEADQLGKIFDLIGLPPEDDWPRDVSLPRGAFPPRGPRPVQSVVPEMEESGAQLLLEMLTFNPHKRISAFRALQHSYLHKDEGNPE

`CC(C)c1c2ccc(-c3nc(Nc4ccc(N5CCNCC5)cn4)ncc3F)c(Cl)c2nn1C`: the IC50 is less than 20 nM.
Turning to `CC(C)c1c(C#N)n(C2CC2)c2ccc(-c3nc(Nc4ccc(CN5CCN(C6CC6)CC5)cn4)ncc3F)cc12`, the IC50 is less than 20 nM.

A word on the IC50: it is the point on the concentration scale where inhibition reaches its midpoint.
